According to patent US6166290A, “Glutathione-S-conjugate transport in plants” (The Trustees of the University of Pennsylvania, priority 1997, dated 2000):
Values joined by “and” are separate entries in the source; they are usually repeats but may differ in a detail not shown here. Equal entries are not always repeated. Each block holds one compound with its values, some of them ahead of it.

How the values were obtained:
AtMRP2 = target: T1, AtMRP2 (Arabidopsis thaliana, UniProt Q42093); test: AtMRP2-dependent uptake by membrane vesicles from pYES3-AtMRP2-transformed DTY168 cells; type: biochemical
T1 construct: S. cerevisiae DTY168 (ycf1 null) vacuolar-enriched membrane vesicles
Description: (§1) Cells were grown and vacuolar membrane-enriched vesicles were prepared as described (Kim et al., 1995, J Biol. Chem. 270:2630-2635-). […] Uptake was terminated by the addition of 1 ml ice-cold wash medium (400 mM sorbitol/3 mM Tris-Mes, pH 8.0) and vacuum filtration of the suspension through prewetted Millipore HA cellulose nitrate filters (pore size 0.45 μm). The filters were rinsed twice with wash medium, and the retained radioactivity was determined by liquid scintillation counting. Nonenergized uptake was estimated by the same procedure except that ATP was omitted from the uptake medium.
Membranes from DTY168/pYES3-AtMRP2 cells were incubated for 10 minutes in standard uptake medium containing 61.3 μM [^3 H]DNP-GS after which time 200 mM glucose and 50 units/ml hexokinase (Type F-300 from baker's yeast) were added. […] Control samples were treated identically except that no additions were made after the initial 10 minute incubation period.

[1] = test system: vacuolar GS-X pump (vacuolar membrane vesicles, V. radiata hypocotyls); settings: cited from earlier work
[2] = test system: vacuolar GS-X pump (vacuolar membrane vesicles, V. radiata hypocotyls); test: GS-conjugate uptake by vacuolar membrane vesicles from etiolated hypocotyls of V. radiata; type: biochemical, Vigna radiata
Description: Values shown are means ±SE (n=3).
Vacuolar membrane vesicles were purified from etiolated hypocotyls of V. radiata cv.
Unless otherwise indicated, [^3 H]medicarpin or [3H]medicarpin-GS uptake was measured at 25° C. in 200 μl reaction volumes containing 3 mM ATP, 3 mM MgSO4, 10 mM creatine phosphate, 16 U/ml creatine kinase, 50 mM KCl, 0.1% (w/v) BSA, 400 mM sorbitol and 25 mM Tris-Mes buffer, pH 8.0. Uptake was initiated by the addition of 12 μl membrane vesicles (30-40 μg protein) and brief mixing of the samples on a vortex mixer. Uptake was terminated by the addition of 1 ml ice-cold wash medium (400 mM sorbitol, 3 mM Tris-Mes, pH 8.0) and vacuum filtration of the suspension through prewetted HA cellulose nitrate filters (pore diameter 0.45 μm). The filters were rinsed twice with a 1 ml ice-cold wash medium, air-dried and radioactivity was determined by liquid scintillation counting.

[3] = test system: vacuolar GS-X pump (vacuolar membrane vesicles, Z. mays roots); test: GS-conjugate uptake by vacuolar membrane vesicles from roots of Z. mays; type: biochemical, Zea mays
AtMRP1 = target: T2, AtMRP1 (Arabidopsis thaliana, UniProt Q9C8G9); test: AtMRP1-dependent uptake by membrane vesicles from pYES3-AtMRP1-transformed DTY168 cells; type: biochemical; parameters: rate of C3G-GS uptake: unit not given here
T2 construct: S. cerevisiae DTY168 (ycf1 null) vacuolar-enriched membrane vesicles
Description: S. cerevisiae strain DTY168 (MATα his6, leu2-3, -112, ura3-52 ycf1::hisG) was transformed with pYES3-AtMRP1 or empty vector lacking the AtMRP1 insert (pYES3) by the LiOAc/PEG method (Giest et al., 1991, Yeast 7:253-263) and selected for uracil prototrophy by plating on AHC medium containing tryptophan (Kim et al., 1994, supra).
For the preparation of membrane vesicles, 15 ml volumes of stationary phase cultures of the transformants were diluted into 1 L of fresh AHC medium and grown to an OD600 nm of about 1.2. Membrane vesicles were purified as described herein and in Kim et al. (1995, supra).
[…] μl reaction volumes containing 3 mM ATP, 3 mM MgSO4, 5 μM gramicidin-D, 10 mM creatine phosphate, 16 units/ml creatine kinase, 50 mM KCl, 1 mg/ml BSA, 400 mM sorbitol, 25 mM Tris-Mes ([…]).
as §1

[4] = test system: vacuolar membrane vesicles purified from DTY167 cells (ycf1Δ mutant); type: biochemical, Saccharomyces cerevisiae
Description: (§2) For the routine preparation of vacuolar membrane vesicles, 15 ml of stationary phase cultures of DTY165 or DTY167 were diluted into 1-liter volumes of fresh YPD medium, grown for 24 hours at 30° C. to an OD600 nm of approximately 0.8 and collected by centrifugation. After washing with distilled water, the cells were converted to spheroplasts with Zymolyase 20T (ICN) (Kim et al., 1994, supra) and intact vacuoles were isolated by flotation centrifugation of spheroplast lysates on Ficoll 400 step gradients as described by Roberts et al. (1991, Methods. Enzymol. 194:644-661). Both the spheroplast lysis buffer and Ficoll gradients contained 2 mg/ml bovine serum albumin, 1 μg/ml aprotinin, 1 μg/ml leupeptin, 1 μg/ml pepstatin, and 1 mM PMSF to minimize proteolysis. The resulting vacuole fraction was vesiculated in 5 mM MgCl2, 25 mM KCl, 10 mM Tris-Mes (pH 6.9) containing 2 mg/ml bovine serum albumin, 1 μg/ml aprotinin, 1 μg/ml leupeptin, 1 μg/ml pepstatin, and 1 mM PMSF, pelleted by centrifugation at 37,000× g for 25 min, and resuspended in suspension medium (1.1 M glycerol, 2 mM dithiothreitol, 1 mM Tris-EGTA, 2 mg/ml bovine serum albumin, 1 μg/ml aprotinin, 1 μg/ml leupeptin, 1 μg/ml pepstatin, 1 mM PMSF, 5 mM Tris-Mes, pH 7.6) (Kim et al., 1995, J. Biol. Chem. 270:2630-2635).
(§3) Unless otherwise indicated, [^3 H]DNP-GS uptake was measured at 25° C. in 200 μl reaction volumes containing 3 mM ATP, 3 mM MgSO4, 5 μM gramicidin-D, 10 mM creatine phosphate, 16 units/ml creatine kinase, 50 mM KC 1, 1 mg/ml bovine serum albumin, 400 mM sorbitol, 25 mM Tris-Mes (pH 8.0), and 66.2 μM [^3 H]DNP-GS (8.7 mCi/mmol) (Li et al., 1995, supra). […] Uptake was initiated by the addition of vacuolar membrane vesicles (10-15 μg of membrane protein), brief mixing of the samples on a vortex mixer and uptake was then allowed to proceed for 1-60 minutes. Uptake was terminated by the addition of 1 ml of ice-cold wash medium (400 mM sorbitol, 3 mM Tris-Mes, pH 8.0) and vacuum filtration of the suspension through prewetted Millipore HA cellulose nitrate membrane filters (pore diameter, 0.45 μm). The filters were rinsed twice with 1 ml of ice-cold wash medium and air-dried, and radioactivity was determined by liquid scintillation counting in BCS mixture (Amersham Corp.). Nonenergized [^3 H]DNP-GS uptake and extravesicular solution trapped on the filters were enumerated by the same procedure except that ATP and Mg^2 +were omitted from the uptake medium.

[5] = target: T3, YCF1 (vacuolar membrane vesicles purified from DTY165 cells) (Saccharomyces cerevisiae, UniProt P39109); test: [3H]DNP-GS uptake by vacuolar membrane vesicles purified from DTY165 cells; type: biochemical
T3 construct: endogenous in cells; host or cells: S. cerevisiae DTY165 (wild type YCF1), vacuolar membrane vesicles
Description: as §2, §3

[6] = target: T3, YCF1 (vacuolar membrane vesicles purified from DTY165 cells); test: biochemical; type: biochemical
Description: (§4) In experiments involving cadmium transport, dithiothreitol and EGTA were removed from the suspension medium to prevent the attenuation of YCF1-dependent Cd^2+ transport otherwise exerted by these compounds. Vesiculated vacuolar membranes were subjected to three cycles of 50-fold dilution into simplified suspension medium (1.1 M glycerol, 5 mM Tris-Mes, pH 8.0), centrifugation at 100,000× g for 35 minutes and resuspension in the same medium before use.
(§5) Singly radiolabeled ^109 Cd.GSn and doubly radio-labeled ^109 Cd[^3 H].GS^n complexes were prepared by sequential gel-filtrationand anion-exchange chromatography of the reaction products generated by incubating 20 mM ^109 CdSO4 (78.4 mCi/mmol) with 40 mM GSH or 40 mM [^3 H]GSH (240 mCi/mmol) in 15 ml 10 mM phosphate buffer (pH 8.0) containing 150 mM KNO3 at 45° C. for 24 hours. For gel-filtration, 2 ml aliquots of the reaction mixture were applied to a column (40×1.5 cm ID) packed with water-equilibrated Sephadex G-1 5, eluted with deionized water and ^109 Cd and/or ^3 H in the fractions was measured by liquid scintillation counting. The fractions encompassed by each of the two ^109 Cd.GSn peaks identified were pooled, lyophilized and redissolved in 4 ml of loading buffer (5 mM Tris-Mes, pH 8.0). For anion-exchange chromatography, 0.5 ml aliquots of the resuspended lyophilizates from gel-filtration chromatography were applied to a Mono-Q HR5/5 column (Pharmacia) equilibrated with the same buffer. Elution was with a linear gradient of NaCl (0.5 ml/minute; 0-500 mM) dissolved in loading buffer. The individual fractions corresponding to the major peaks of ^109 Cd obtained from the Mono-Q column (one each for the peaks resolved by gel-filtration chromatography) were pooled, lyophilized and resuspended in 4 ml deionized water after liquid scintillation counting.
(§6) MgATP-energized, uncoupler-insensitive ^109 Cd^2+ uptake by vacuolar membrane vesicles was measured at 25° C. in 200 μl reaction volumes containing 3 mM ATP, 3 mM MgSO4, 5 μM gramicidin-D, 10 mM creatine phosphate, 16 units/ml creatine kinase, 50 mM KCl, 400 mM sorbitol, 25 mM Tris-Mes (pH 8.0) and the indicated concentrations of ^109 CdSO4, GSH or ^109 Cd- and/or ^3 H-labeled purified Cd.GSn complexes as described herein except that the wash media contained 100 μM CdSO4 in addition to sorbitol (400 mM) and Tris-Mes (3 mM, pH 8.0).

[7] = test system: vacuolar membrane vesicles purified from DTY167 cells (ycf1Δ mutant); type: biochemical, Saccharomyces cerevisiae; remark: listed apart in the source
Description: as §4, §5, §6

[8] = MgATP-dependent, uncoupler-insensitive
[9] = 66.2 μM DNP-GS, 3 mM MgATP (omitted with MgAMP-PNP), MgAMP-PNP 3 mM, bafilomycin A1 0.5 μM, FCCP 5 μM, gramicidin D 5 μM, NH4Cl 1 mM
[10] = as Table 1 concentrations, 10 min
[11] = gramicidin-D 5 μM, vanadate 10 μM, DNP-GS 100 μM
[12] = 50 μM 109Cd.GS2, bafilomycin A1 0.5 μM, FCCP 5 μM, gramicidin-D 5 μM, NH4Cl 1 mM
[13] = as Table 7 concentrations, 10 min

T1 sequence (Q42093 whole entry): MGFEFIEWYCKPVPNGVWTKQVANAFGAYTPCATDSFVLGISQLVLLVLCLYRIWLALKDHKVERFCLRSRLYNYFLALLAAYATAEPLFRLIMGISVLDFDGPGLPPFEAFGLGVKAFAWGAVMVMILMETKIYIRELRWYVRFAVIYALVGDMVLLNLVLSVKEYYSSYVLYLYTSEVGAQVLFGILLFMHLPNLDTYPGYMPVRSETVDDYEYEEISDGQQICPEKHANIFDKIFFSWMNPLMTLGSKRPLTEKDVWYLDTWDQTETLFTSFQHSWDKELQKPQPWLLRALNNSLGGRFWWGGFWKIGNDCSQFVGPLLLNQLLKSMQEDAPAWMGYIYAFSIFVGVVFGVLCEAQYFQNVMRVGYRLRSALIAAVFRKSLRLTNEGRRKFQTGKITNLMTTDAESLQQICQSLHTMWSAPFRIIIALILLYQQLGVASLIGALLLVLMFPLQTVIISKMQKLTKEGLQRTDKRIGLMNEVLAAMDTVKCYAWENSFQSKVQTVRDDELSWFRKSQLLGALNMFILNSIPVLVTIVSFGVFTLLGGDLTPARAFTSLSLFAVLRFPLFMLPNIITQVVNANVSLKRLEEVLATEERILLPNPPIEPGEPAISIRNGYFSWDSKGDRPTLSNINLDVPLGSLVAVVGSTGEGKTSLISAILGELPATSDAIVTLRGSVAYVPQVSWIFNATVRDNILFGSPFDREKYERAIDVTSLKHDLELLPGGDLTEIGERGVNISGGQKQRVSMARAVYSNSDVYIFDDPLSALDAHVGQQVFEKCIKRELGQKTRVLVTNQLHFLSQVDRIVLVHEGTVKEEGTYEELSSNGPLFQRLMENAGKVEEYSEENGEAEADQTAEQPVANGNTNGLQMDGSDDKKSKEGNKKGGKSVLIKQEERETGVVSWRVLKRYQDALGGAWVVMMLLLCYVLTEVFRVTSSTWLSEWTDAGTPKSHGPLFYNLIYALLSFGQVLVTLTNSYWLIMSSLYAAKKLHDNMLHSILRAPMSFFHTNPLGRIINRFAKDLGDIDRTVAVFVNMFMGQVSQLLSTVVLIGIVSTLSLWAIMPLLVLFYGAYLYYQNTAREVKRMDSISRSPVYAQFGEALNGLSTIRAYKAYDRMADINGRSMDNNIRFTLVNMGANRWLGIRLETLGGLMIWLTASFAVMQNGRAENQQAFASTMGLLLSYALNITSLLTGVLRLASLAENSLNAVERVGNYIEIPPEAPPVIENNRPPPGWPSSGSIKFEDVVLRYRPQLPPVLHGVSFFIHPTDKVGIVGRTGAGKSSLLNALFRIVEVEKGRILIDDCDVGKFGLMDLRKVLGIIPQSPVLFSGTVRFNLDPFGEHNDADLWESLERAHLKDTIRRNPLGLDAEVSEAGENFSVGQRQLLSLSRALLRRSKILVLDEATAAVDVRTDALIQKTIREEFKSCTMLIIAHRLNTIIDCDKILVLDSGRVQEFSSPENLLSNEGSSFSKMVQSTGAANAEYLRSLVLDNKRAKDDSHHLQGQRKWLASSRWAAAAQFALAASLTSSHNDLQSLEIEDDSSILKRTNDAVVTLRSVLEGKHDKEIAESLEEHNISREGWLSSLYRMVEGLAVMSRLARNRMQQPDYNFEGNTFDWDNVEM
T2 sequence (Q9C8G9 whole entry): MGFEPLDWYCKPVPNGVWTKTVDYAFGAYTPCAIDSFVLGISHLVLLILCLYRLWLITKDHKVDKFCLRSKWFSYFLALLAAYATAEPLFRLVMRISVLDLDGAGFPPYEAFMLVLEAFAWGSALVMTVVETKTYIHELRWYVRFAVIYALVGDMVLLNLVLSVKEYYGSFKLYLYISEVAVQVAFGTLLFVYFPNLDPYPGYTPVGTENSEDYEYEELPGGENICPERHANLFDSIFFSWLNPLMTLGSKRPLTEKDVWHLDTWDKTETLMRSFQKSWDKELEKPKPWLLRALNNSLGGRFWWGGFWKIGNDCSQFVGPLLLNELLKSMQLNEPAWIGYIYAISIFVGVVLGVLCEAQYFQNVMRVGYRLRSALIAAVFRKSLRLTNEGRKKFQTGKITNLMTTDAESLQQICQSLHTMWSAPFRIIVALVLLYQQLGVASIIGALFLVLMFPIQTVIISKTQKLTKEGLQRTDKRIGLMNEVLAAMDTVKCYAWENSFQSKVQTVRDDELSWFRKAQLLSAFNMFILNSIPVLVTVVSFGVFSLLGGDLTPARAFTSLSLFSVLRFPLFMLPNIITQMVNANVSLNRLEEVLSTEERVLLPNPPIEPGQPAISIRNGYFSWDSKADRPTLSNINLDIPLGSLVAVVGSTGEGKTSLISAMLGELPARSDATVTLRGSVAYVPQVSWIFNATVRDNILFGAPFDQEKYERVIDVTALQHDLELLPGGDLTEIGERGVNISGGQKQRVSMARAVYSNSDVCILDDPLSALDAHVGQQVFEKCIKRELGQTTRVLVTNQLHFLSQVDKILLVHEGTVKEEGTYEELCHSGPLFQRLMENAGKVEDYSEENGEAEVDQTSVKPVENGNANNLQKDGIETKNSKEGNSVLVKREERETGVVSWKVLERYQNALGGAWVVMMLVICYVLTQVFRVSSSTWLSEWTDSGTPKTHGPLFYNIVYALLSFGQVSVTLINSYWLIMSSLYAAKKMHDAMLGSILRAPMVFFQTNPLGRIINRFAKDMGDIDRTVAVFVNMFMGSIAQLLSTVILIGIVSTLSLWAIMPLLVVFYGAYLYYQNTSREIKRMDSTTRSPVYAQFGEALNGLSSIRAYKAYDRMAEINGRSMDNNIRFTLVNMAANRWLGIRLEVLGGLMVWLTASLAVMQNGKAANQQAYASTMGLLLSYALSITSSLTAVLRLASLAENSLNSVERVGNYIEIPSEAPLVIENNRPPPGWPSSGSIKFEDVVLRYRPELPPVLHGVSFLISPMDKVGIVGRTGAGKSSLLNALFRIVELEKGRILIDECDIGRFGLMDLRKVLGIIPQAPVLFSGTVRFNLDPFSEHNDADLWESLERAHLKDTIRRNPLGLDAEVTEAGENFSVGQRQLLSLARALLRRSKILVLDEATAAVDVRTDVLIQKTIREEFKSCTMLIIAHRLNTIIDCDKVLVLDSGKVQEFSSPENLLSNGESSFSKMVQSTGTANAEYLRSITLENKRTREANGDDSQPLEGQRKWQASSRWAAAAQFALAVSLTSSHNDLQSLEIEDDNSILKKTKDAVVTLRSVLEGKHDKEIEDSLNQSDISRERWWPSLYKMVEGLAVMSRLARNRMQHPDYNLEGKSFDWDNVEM
T3 sequence (P39109 whole entry): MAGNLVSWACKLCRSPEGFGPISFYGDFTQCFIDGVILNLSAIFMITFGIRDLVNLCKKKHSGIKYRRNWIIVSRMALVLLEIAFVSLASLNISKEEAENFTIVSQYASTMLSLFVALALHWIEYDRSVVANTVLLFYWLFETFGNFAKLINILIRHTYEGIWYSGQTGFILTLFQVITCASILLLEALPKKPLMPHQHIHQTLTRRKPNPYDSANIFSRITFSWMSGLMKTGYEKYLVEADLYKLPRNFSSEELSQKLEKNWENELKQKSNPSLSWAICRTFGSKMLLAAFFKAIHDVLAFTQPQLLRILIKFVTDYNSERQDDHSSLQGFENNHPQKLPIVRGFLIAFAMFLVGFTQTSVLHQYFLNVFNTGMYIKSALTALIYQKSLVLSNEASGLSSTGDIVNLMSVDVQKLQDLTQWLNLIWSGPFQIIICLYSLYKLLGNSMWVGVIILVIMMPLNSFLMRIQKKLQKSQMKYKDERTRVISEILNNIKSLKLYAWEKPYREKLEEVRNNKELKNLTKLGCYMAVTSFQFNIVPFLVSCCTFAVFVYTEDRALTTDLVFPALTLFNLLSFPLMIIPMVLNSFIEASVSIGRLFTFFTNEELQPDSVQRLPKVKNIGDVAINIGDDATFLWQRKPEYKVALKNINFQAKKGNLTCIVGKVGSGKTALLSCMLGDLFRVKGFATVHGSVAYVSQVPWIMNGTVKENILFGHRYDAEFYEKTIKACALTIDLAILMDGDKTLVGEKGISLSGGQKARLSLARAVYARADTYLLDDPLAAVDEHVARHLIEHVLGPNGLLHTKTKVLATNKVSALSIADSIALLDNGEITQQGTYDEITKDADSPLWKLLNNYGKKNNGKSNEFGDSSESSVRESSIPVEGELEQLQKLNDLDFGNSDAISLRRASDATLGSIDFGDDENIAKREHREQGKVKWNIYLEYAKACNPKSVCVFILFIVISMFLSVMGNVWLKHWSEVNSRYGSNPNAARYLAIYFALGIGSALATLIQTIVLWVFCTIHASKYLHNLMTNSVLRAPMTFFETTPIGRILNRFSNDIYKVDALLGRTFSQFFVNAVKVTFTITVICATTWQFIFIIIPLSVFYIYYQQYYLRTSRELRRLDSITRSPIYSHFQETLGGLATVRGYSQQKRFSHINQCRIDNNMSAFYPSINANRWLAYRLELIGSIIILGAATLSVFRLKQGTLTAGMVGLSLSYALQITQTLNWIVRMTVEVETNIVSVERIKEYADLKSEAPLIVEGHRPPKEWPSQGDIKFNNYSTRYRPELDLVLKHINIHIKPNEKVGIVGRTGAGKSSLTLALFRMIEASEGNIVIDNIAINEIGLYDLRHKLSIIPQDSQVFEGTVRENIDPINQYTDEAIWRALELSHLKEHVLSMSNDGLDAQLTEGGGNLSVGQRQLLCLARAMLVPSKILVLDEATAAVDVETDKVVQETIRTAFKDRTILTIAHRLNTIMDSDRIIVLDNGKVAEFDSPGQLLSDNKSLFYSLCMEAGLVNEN

Compound: Triton X-100
- release (efflux) of accumulated [3H]DNP-GS after hexokinase trap (AtMRP2): more than 3 fold

- Km ([2]; V. radiata, read-out: Km for MgATP-dependent, uncoupler-insensitive uptake): 45.7 ± 14 µM
- rate of C3G-GS uptake (AtMRP2; 50 μM): 48.4±2.2 nmol/mg/10 min
- Km ([3]; read-out: Km for MgATP-dependent, uncoupler-insensitive uptake): 39.5 ± 16.6 µM
- rate of C3G-GS uptake (AtMRP1; 50 μM): 7.9±0.7
Compound: cyanin-3-glucoside-GS [C3G-GS]
- Km estimated previously in this system [1]: 46 µM
- Vmax of GS-X pump ([1]; comparison value for C3G-GS): 45 nmol/mg/min
- Vmax for MgATP-dependent, uncoupler-insensitive uptake ([2]; V. radiata): 45.3 ± 6.5 nmol/mg/10 min
- Vmax for MgATP-dependent, uncoupler-insensitive uptake [3]: 79.1 ± 14.7 nmol/mg/10 min

- MgATP-dependent, uncoupler-insensitive uptake of unconjugated precursor detectable (AtMRP2): In no case
- MgATP-dependent, uncoupler-insensitive uptake of unconjugated precursor detectable (AtMRP1): In no case
Compound: OC[C@H]1O[C@@H](Oc2cc3c(O)cc(O)cc3[o+]c2-c2ccc(O)c(O)c2)[C@H](O)[C@@H](O)[C@@H]1O [C3G, cyanidin-3-glucoside]

Compound: N[C@@H](CCC(=O)N[C@@H](CS)C(=O)NCC(=O)O)C(=O)O [GSH, glutathione]
- MgATP-dependent, uncoupler-insensitive DNP-GS uptake plus compound [4]: 4.6 ± 1.1 nmol/mg/10 minutes
- MgATP-dependent, uncoupler-insensitive DNP-GS uptake as percentage of control ([4]; dty167 vacuolar membrane vesicles, 10 min): 70.8
- MgATP-dependent, uncoupler-insensitive DNP-GS uptake plus compound [5]: 50.6 ± 2.3 nmol/mg/10 minutes
- MgATP-dependent, uncoupler-insensitive DNP-GS uptake as percentage of control ([5]; dty165 vacuolar membrane vesicles, 10 min): 105.6
- t1/2 of GSH stimulation of Cd2+ uptake [6]: < 5 min
- MgATP-dependent, uncoupler-insensitive uptake of unconjugated precursor detectable (AtMRP2): In no case
- MgATP-dependent, uncoupler-insensitive uptake of unconjugated precursor detectable (AtMRP1): In no case

Compound: O=[N+]([O-])c1ccc(Cl)c([N+](=O)[O-])c1 [DNP]
- MgATP-dependent, uncoupler-insensitive uptake of unconjugated precursor detectable (AtMRP2): In no case
- MgATP-dependent, uncoupler-insensitive uptake of unconjugated precursor detectable (AtMRP1): In no case

Compound: CCc1cccc(C)c1N(C(=O)CCl)C(C)COC (stereo not drawn) [metolachlor]
- MgATP-dependent, uncoupler-insensitive uptake of unconjugated precursor detectable (AtMRP2): In no case
- MgATP-dependent, uncoupler-insensitive uptake of unconjugated precursor detectable (AtMRP1): In no case

- Km (AtMRP2; [8]): 15.2 µM and 15 µM
- Vmax for AtMRP2-dependent uptake (AtMRP2; [8]): 63.1 ± 2.5 nmol/mg/10 min
- Km for AtMRP1-dependent uptake (AtMRP1; [8]): Linear
Compound: C=CC1=C(C)C(Cc2[nH]c(C3c4[nH]c(Cc5[nH]c(C=O)c(C)c5CCOC(=O)CC(=O)O)c(C)c4C(=O)C3C(=O)O)c(CCC(=O)O)c2C)NC1=O (stereo not drawn) [Bn-NCC-1]

Compound: Gramicidin D
- DNP-GS uptake plus the compound indicated [4, 9]: 5.8 ± 0.1 nmol/mg/10 minutes
- DNP-GS uptake as percentage of control plus the compound indicated [4, 10]: 37.7%
- [3H]Medicarpin-GS uptake with treatment, +MgATP ([2]; 65 μM medicarpin-GS, 3 mM MgATP, gramicidin-D 5 μM, vanadate 10 μM, DNP-GS 100 μM): 71.2 ± 3.0 nmol/mg/10 minutes
- [3H]Medicarpin-GS uptake with treatment, -MgATP ([2]; 65 μM medicarpin-GS, gramicidin-D 5 μM, vanadate 10 μM, DNP-GS 100 μM): 13.2 ± 2.1 nmol/mg/10 minutes
- [3H]Medicarpin-GS uptake as percentage of control, +MgATP [2, 11]: 83.2%
- [3H]Medicarpin-GS uptake as percentage of control, -MgATP [2, 11]: 79.0%
- inhibition of MgATP-dependent [3H]medicarpin-GS uptake ([2]; vanadate 10 μM, DNP-GS 100 μM, gramicidin D): 17%
- DNP-GS uptake plus the compound indicated [5, 9]: 45.8 ± 1.4 nmol/mg/10 minutes
- DNP-GS uptake as percentage of control plus the compound indicated [5, 10]: 58.9%
- 109Cd.GS2 uptake plus addition [6, 12]: 77.8 ± 6.4 nmol/mg/10 minutes
- 109Cd.GS2 uptake as percentage of control [6, 13]: 73.5%
- decrease of MgATP-dependent Cd.GS2 uptake ([6]; text to Table 7): 22%
- 109Cd.GS2 uptake plus addition [7, 12]: 9.3 ± 2.0 nmol/mg/10 minutes
- 109Cd.GS2 uptake as percentage of control [7, 13]: 56.6%
